In patent US4001327A, “Novel quaternary salts and method” (The Regents of the University of Michigan, priority 1973, dated 1977):

Experiments:
[1] = described by Lucchesi et al. 1968; undesirable side-effect of prior art compound; cited from earlier work
[2] = test system: excised hearts perfused by donor dog; experiment: Oxygen consumption of excised hearts perfused with whole blood from a donor dog; assay type: in vivo; conditions: 10 mg./kg. intravenously to 5 donor dogs; value before treatment 3.1 ± 0.2; statistically significant (p<0.01) reduction
Procedure: In a separate assay, hearts are excised from anesthetized animals and perfused via the aorta at a constant pressure with oxygenated whole blood supplied by a donor dog connected to the heart. Oxygen consumption is calculated and expressed as ml./min./100 g. of the myocardium. The donor dogs are then treated intravenously with the selected dose of the test compound and the mean oxygen consumption value again calculated. The test compound is rated active if it effects a statistically significant reduction in that value.

mongrel dogs [3] = experiment: Myocardial oxygen consumption, left coronary arteries perfused with arterial blood at constant pressure, anesthetized dogs; assay type: in vivo, dog; conditions: 10 mg./kg. intravenously prior to perfusion; 5 dogs; mean control 11.7 ± 1.9; statistically significant (p<0.05) reduction
Procedure: A group of 5 mongrel dogs is anesthetized and thoractomized by the procedure described in the preceding assay and the left anterior descending and circumflex coronary arteries are cannulated and perfused with arterial blood at a constant pressure. Coronary arterial and venous blood samples are collected and their oxygen content measured. Myocardial oxygen consumption is calculated and expressed as ml./min./100 g. of the left ventricle. the mean control oxygen consumption in these 5 animals is 11.7 ± 1.9.
In a second group of 5 animals, prepared as described above, the selected dose of the test compound is administered intravenously prior to perfusion. The myocardial oxygen consumption is calculated and compared with the corresponding value in the control group. A compound is rated active if it effects a statistically significant reduction in the myocardial oxygen consumption observed in the control group.

mongrel dogs [4] = experiment: Epicardial ST segment elevation (ΣST) after 10-minute coronary artery branch occlusion in anesthetized dogs; assay type: in vivo, dog; conditions: 10 mg./kg. intravenously 15 minutes prior to the second 10-minute occlusion; control ΣST 34.8 ± 4.9 mV
Procedure: A group of 10 mongrel dogs, weighing 11-19 kg., is anesthetized by the intravenous administration of 30 mg./kg. of pentobarbital sodium and breathing maintained by means of a Harvard respirator. A thoractomy is performed through the fifth left intercostal space; the heart is suspended in a pericardial cradle; a branch of the left anterior descending coronary artery is dissected free and a suture placed under that vessel. Occlusion of that arterial branch is accomplished by passing the free ends of the suture through a short section of polyethylene tubing and pressing the tubing against the vessel while exerting traction on the free ends of the suture. Termination of the occlusion is achieved by releasing the suture and pulling the tube away from the vessel.
The degree of myocardial ischemic injury resulting from occlusion of the artery is determined by the epicardial electrocardiographic method described by Maroko et al., Circulation, 43, 67-82 (1971). […] All surface collateral vessels are ligated and the unipolar electrograms from the six epicardial leads and the Lead II electrocardiogram are recorded on a Grass model 7 polygraph. […]
The reproducibility of the method with respect to the magnitude of ΣST is determined by successive 10-minute occlusions in a group of five dogs. […]

Row | Structure (SMILES) | local anesthetic activity [1] | mean oxygen consumption value [2] | myocardial oxygen consumption (mongrel dogs [3]) | sum of the ST segment elevation in the six epicardial leads (ΣST) (mongrel dogs [4]) [mV]
1 | CC[N+](C)(CC)CC(O)COc1cccc2ccccc12 (stereo not shown) [1-(N,N-diethylamino)-3-(1-naphthoxy)propan-2-ol methiodide] | local anesthetic activity |  |  | 
2 | CC(C)[N+](C)(C)CC(O)COc1cccc2ccccc12 (stereo not shown) [1-(N-isopropyl-N-methylamino)-3-(1-naphthoxy)propan-2-ol methochloride] |  | 2.1 ± 0.1 ml./min./100 g. of the myocard | 7.6 ± 1.1 ml./min./100 g. of the left ve | 11.3 ± 2.1
